Calls of active or inactive are those of the source.
How the values were obtained:
[1] = THP-1 cell cytotoxicity, dose response, cytotoxicity control for Vif-APOBEC3G degradation inhibitor project, THP-1 cells (AID 1117359); type: functional; details: Human immunodeficiency virus 1, THP-1
[2] = target: NAD-dependent protein deacylase sirtuin-5, mitochondrial (Homo sapiens, UniProt Q9NXA8); test: SIRT5 desuccinylase inhibitors, dose response, biochemical, fluorescence imaging, cherry-pick, set 5 (AID 720591);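 also: desuccinylation of succinyl peptide AMC substrate read as fluorescence after trypsin release; potency of inhibitors that lower fluorescence and may act on trypsin instead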
Chain of NAD-dependent protein deacylase sirtuin-5, mitochondrial (Q9NXA8 whole entry): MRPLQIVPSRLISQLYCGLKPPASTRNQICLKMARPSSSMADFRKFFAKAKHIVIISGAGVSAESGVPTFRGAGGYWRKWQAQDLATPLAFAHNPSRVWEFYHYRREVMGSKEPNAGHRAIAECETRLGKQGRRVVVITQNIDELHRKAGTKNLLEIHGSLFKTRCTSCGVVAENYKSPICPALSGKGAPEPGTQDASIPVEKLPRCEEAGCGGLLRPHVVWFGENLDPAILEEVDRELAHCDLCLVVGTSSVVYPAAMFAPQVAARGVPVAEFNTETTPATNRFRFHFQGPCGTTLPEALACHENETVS

[3] = HEp-2 cell cytotoxicity, dose response, cytotoxicity control for RSV inhibitor project, HTS (AID 2410); type: functional; details: human respiratory syncytial virus
[4] = target: T1, Heat shock factor protein 1 (Mus musculus, UniProt P38532); test: inhibition of MG132-induced HSE-luciferase signal, confirmation, cell-based, NIH3T3, luminescence, dose retest (AID 2382); type: functional;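 also: NIH3T3 fibroblasts with HSF1-driven luciferase reporter stressed by proteasome inhibitor MG132; luminescence from HSF1-driven luciferase expression after 8 hours of MG132 stress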
T1 sequence (P38532 whole entry): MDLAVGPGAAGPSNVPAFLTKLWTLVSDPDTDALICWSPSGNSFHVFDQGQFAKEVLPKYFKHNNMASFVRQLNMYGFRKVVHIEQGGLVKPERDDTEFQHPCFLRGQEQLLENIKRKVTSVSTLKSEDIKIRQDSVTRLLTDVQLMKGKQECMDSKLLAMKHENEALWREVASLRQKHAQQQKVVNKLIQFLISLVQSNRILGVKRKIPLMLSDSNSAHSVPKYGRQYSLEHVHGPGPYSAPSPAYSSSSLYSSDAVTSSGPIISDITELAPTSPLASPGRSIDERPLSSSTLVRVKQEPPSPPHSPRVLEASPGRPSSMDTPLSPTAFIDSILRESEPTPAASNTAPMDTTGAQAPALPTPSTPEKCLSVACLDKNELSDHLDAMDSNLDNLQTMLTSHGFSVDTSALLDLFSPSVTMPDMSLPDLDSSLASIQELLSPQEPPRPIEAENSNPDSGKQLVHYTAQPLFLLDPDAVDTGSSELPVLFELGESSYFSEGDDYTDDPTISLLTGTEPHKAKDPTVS

[5] = target: COUP transcription factor 2 (Homo sapiens, UniProt P24468); test: Luminescence-based cell-based high throughput dose response assay to identify inhibitors of COUP-TFII (NR2F2).; type: functional;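 also: HEK293 cells transiently cotransfected with COUP-TFII expression vector and reporter; luciferase reporter luminescence driven by COUP-TFII from the pX2-168 reporter plasmid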
Chain of COUP transcription factor 2 (P24468 whole entry): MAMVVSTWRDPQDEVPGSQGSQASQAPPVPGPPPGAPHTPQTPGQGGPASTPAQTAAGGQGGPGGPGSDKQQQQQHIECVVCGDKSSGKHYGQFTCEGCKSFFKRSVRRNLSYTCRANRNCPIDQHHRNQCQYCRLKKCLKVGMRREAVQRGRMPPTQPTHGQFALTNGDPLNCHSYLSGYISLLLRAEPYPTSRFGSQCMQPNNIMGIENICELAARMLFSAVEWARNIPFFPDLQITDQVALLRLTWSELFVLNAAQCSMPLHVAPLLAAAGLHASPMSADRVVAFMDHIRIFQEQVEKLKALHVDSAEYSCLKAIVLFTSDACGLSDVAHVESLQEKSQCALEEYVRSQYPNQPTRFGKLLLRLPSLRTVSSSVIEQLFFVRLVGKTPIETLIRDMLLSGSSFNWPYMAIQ

[6] = Artemis endonuclease inhibitor potency, dose response, biochemical, fluorescence intensity (AID 720701); type: functional;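 also: Artemis endonuclease enzyme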
[7] = target: T2, Sentrin-specific protease 7 (Homo sapiens, UniProt Q9BQF6); type: functional;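 also: Luminescence-based dose-response confirmation of ultra-high-throughput screening hits, measuring inhibition of SENP7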
T2 sequence (Q9BQF6 whole entry): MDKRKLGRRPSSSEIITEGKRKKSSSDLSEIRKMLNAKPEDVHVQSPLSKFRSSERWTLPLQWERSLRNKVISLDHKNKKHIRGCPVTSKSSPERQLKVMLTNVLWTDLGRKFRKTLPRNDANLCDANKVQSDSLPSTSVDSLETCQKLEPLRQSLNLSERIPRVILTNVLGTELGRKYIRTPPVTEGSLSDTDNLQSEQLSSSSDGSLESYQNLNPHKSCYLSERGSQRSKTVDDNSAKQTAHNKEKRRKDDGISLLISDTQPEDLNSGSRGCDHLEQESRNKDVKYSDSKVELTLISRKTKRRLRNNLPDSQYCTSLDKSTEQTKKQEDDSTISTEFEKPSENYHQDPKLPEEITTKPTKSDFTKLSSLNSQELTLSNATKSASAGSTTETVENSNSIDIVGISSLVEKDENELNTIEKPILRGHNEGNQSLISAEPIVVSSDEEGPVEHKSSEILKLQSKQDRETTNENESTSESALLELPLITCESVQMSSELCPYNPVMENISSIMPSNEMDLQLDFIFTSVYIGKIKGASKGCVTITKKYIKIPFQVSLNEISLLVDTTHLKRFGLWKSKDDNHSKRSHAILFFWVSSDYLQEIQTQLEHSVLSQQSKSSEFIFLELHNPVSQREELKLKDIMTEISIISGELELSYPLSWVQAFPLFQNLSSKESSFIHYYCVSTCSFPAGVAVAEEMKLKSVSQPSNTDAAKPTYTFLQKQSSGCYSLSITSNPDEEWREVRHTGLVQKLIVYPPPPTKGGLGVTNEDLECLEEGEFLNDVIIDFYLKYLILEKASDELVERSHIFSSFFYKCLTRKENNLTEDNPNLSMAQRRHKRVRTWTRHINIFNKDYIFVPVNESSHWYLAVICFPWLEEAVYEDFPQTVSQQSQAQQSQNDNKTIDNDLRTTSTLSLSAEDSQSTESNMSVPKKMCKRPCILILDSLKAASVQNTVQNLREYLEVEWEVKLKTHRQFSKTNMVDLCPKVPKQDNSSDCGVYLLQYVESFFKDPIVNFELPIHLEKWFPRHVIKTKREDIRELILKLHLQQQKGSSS

[8] = target: T3, Sentrin-specific protease 6 (Homo sapiens, UniProt Q9GZR1); type: functional;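 also: Luminescence-based dose-response confirmatory assay of SENP6 inhibition, following up an ultra-high-throughput screen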
T3 sequence (Q9GZR1 whole entry): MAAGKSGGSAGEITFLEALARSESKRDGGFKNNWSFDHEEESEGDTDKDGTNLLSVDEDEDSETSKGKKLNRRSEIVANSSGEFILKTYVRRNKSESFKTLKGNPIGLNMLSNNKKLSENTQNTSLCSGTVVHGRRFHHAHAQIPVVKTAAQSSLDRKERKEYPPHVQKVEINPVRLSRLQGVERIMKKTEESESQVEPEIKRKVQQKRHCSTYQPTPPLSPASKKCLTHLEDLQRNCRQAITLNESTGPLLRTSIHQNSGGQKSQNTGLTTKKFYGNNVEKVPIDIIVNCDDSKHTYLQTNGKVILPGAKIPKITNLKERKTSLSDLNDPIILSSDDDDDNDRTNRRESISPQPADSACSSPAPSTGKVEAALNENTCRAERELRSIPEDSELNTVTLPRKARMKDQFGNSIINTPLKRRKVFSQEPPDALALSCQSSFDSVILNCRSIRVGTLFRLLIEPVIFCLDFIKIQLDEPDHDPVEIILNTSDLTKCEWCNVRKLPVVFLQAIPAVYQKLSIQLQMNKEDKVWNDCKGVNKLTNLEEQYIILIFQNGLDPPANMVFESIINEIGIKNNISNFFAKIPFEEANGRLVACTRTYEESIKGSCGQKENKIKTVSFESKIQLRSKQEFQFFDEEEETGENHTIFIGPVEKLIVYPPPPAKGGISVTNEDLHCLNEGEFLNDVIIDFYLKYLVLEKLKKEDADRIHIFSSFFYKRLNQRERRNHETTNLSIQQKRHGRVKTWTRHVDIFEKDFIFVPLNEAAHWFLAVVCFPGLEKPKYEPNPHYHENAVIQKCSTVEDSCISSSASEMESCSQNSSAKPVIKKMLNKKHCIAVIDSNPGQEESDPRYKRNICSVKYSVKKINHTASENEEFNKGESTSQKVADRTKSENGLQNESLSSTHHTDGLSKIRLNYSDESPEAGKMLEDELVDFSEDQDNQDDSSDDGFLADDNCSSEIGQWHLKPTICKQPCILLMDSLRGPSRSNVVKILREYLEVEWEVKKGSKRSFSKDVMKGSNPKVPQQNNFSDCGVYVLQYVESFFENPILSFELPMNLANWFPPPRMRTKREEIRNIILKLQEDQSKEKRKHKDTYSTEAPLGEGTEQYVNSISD

Caspase-3 = target: T4, Caspase-3 (Homo sapiens, UniProt P42574); type: functional;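 also: Dose-response selectivity test against caspase-3 for candidate inhibitors of sentrin-specific proteases (SENPs)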
T4 sequence (P42574 whole entry): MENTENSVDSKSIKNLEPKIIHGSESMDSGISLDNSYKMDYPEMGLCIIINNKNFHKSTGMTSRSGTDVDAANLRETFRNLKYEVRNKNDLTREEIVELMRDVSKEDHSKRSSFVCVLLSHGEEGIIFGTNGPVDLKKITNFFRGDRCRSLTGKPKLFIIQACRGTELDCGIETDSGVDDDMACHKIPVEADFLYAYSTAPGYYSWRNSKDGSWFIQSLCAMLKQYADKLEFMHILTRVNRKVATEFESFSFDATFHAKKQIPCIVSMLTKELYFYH

[9] = target: T5, Sentrin-specific protease 8 (Homo sapiens, UniProt Q96LD8); type: functional;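 also: luminescence read-out of SENP8 inhibition, dose-response confirmation following an ultra-high-throughput screen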
T5 sequence (Q96LD8 whole entry): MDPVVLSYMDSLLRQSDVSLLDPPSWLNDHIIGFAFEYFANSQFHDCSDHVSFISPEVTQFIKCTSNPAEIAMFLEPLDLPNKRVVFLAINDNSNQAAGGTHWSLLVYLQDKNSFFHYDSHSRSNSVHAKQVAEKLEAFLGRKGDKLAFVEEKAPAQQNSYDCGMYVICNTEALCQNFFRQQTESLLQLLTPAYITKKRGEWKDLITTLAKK

[10] = target: T6, Oxysterols receptor LXR-beta (Homo sapiens, UniProt P55055); type: functional, cell-based;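 also: Cell-based luminescence dose-response assay of agonist activity at LXR, run as a confirmatory counterscreen to a daf-12 agonist screen; HEK293 cells with Gal4-LXR fusion and GAL4-driven luciferase reporter; agonist potency from rising luciferase signal of a Gal4-LXR reporter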
T6 sequence (P55055 whole entry): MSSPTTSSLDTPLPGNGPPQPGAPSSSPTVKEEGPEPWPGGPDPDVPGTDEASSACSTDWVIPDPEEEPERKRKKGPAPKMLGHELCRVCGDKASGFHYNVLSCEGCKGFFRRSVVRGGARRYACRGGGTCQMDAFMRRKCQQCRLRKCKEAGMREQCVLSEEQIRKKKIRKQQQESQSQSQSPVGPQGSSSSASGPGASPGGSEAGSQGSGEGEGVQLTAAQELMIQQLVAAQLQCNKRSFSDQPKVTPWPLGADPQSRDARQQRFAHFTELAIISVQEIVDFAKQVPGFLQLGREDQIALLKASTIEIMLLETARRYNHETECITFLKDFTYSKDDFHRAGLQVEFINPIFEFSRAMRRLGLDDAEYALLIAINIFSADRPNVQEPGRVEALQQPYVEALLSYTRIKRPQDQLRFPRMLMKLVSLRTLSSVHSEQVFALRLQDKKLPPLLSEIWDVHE

[11] = cytotoxicity toward HCT116 cells – cell-based, CellTiter-Glo luminescence, IC50, dose response (AID 1117332); type: functional; details: HCT-116
[12] = cytotoxicity toward Colo320 cells – cell-based, CellTiter-Glo luminescence, IC50, dose response (AID 1117334); type: functional; details: COLO 320
[13] = CellTiter-Glo luminescent dose response of DLD-1 viability loss (AID 1117352); type: functional
[14] = RKO cell viability reduction, dose response, CellTiter-Glo luminescence (AID 1117322); type: functional
[15] = Concentration-dependent survival of SW480 colon cancer line, luminescence detection with CellTiter-Glo, half-maximal inhibitory concentration (AID 1117338); type: functional
[16] = cytotoxicity toward HT-29 cells – cell-based, CellTiter-Glo luminescence, IC50, dose response (AID 1117330); type: functional
[17] = HCT116 cell viability decrease, GSK3B pretreatment – CellTiter-Glo, IC50, dose response (AID 1117339); type: functional; details: HCT-116
[18] = SNU-C1 cell viability reduction, dose response, CellTiter-Glo luminescence (AID 1117323); type: functional, cell-based
[19] = inhibitors of PGC1a acetylation in cells, dose response, cell-based, cherry-picked samples (AID 720514); type: functional;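 also: potency may reflect raised or lowered acetylation signal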
[20] = P. falciparum Dd2 growth inhibitors, dose response, SYBR Green, dry powder samples, set 9 (AID 1159568); type: functional, cell-based
[21] = target: G-protein coupled receptor 183 (Homo sapiens, UniProt P32249); test: SAR confirmation of small molecule antagonists of the EBI2 receptor via a luminescent beta-arrestin assa.; type: functional
Chain of G-protein coupled receptor 183 (P32249 whole entry): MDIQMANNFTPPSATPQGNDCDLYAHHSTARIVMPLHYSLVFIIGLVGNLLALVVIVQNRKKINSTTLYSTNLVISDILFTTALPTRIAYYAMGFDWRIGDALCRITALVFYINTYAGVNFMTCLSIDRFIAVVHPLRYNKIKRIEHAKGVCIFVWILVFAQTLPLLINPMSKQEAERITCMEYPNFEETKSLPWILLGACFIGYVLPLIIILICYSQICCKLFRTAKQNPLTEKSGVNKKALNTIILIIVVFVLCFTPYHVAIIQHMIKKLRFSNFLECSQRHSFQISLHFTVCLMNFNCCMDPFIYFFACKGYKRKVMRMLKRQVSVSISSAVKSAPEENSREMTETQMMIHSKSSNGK

[22] = P. falciparum ATP4 D1247Y mutant growth inhibitors, dose response, NITD609-resistant line, SYBR Green, dry powder (AID 1159571); type: functional, cell-based;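 also: parasites synchronized at ring stage by sorbitol before testing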
[23] = P. falciparum Dd2 growth inhibitors, dose response, SYBR Green, dry powder samples (AID 1159566); type: functional, cell-based;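 also: potency for growth inhibition with lower SYBR green DNA signal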
[24] = P. falciparum 3D7-ScDHODH growth inhibitors, dose response, SYBR Green, dry powder samples (AID 1159570); type: functional, cell-based;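 also: parasite growth measured after 72 hours of compound exposure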
[25] = HepG2 cell cytotoxicity, dose response, cytotoxicity control, plate reader, dry powder samples (AID 1159569); type: functional, cell-based;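 also: inhibitor potency with signal falling toward the positive control level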

COc1ccc(-c2[nH]c3ccccc3c2SCCN)cc1
CC50 [1]: 28.3 µM (active)

O=C(COc1ccc2c(c1)OCO2)Nc1ccc(Cl)cn1
AC50 [2]: > 30 µM (inactive)

Cc1nc2c(-c3ccccc3)cnn2c(N)c1-c1ccccc1
CC50 [3]: 17.2 µM (active) | EC50 [4]: < 0.16 µM (active) | IC50 [5]: > 9.5 µM (active)

COc1ccc(C2CC(c3ccc(Cl)cc3)Nc3nc(NC(=O)c4ccco4)nn32)cc1 (stereo not drawn)
IC50 [6]: 11.8 µM (active)

Nc1nc(-c2ccccc2)nc2sc3c(c12)CCCC3
IC50 [7]: 3.08 µM (active) | IC50 [8]: 10 µM (active) | IC50 (Caspase-3): 19 µM (active) | IC50 [9]: 5.99 µM (active) | EC50 (cells): > 67.5 µM (inactive) | EC50 [10]: > 67.5 µM (inactive)

CC(C)N(C(=O)[C@H]1C[C@H](CC(=O)NCc2cccc(C(F)(F)F)c2)C(=O)N2CCc3c([nH]c4cc(CCC(=O)N(C)C)ccc34)[C@]12C)C(C)C
AC50 [2]: > 30 µM (inactive)

CCOC(=O)[C@H](CCc1ccccc1)N[C@@H](C)C(=O)N1C(=O)N(C)C[C@H]1C(=O)O
IC50 [11]: > 20 µM (inactive) | IC50 [12]: > 20 µM (inactive) | IC50 [13]: > 20 µM (inactive) | IC50 [14]: > 20 µM (inactive) | IC50 [15]: > 20 µM (inactive) | IC50 [16]: > 20 µM (inactive) | IC50 [17]: > 20 µM (inactive) | IC50 [18]: > 20 µM (inactive)

N#C[C@H]1[C@H](c2ccc(C#CC3CCCC3)cc2)[C@H](CO)N1C(=O)Cc1ccccn1
AC50 [19]: 20.4 µM (active)

COc1ccc(S(=O)(=O)N(C)C[C@H]2Oc3ccc(NC(=O)Cc4cn(C)c5ccccc45)cc3C(=O)N([C@H](C)CO)C[C@@H]2C)cc1
AC50 [20]: 0.39 µM (active)

O=C(/C=C/c1ccc(Br)cc1)N1CCN(C(=O)c2ccccc2)CC1
IC50 [21]: 0.00062 µM (active)

Cc1ccc(CN2CCN(C(=O)/C=C/c3ccc(Br)cc3)CC2)cc1
IC50 [21]: 0.00177 µM (active)

COc1cccc(CN2[C@H](CO)[C@@H](c3ccccc3)C23CN(Cc2ccccc2OC)C3)c1
AC50 [22]: 0.875 µM (active) | AC50 [23]: 0.47 µM (active) | AC50 [24]: 0.999 µM (active) | AC50 [20]: 1.31 µM (active) | AC50 [25]: 23.9 µM (active)

CSc1ccc(/C=C2/C(C)=C(CC(=O)O)c3cc(F)ccc32)cc1 [SULINDAC SULFIDE]
IC50 [11]: > 20 µM (inactive) | IC50 [12]: > 20 µM (inactive) | IC50 [13]: > 20 µM (inactive) | IC50 [14]: > 20 µM (inactive) | IC50 [15]: 20 µM (inactive) | IC50 [16]: > 20 µM (inactive) | IC50 [17]: > 20 µM (inactive) | IC50 [18]: 12 µM (inactive)

From ChEMBL document CHEMBL1201862, “PubChem BioAssay data set” (2004)
